Assay results: patent US6610698B2, “Substituted pyrimidine compounds and methods of use” (Amgen, Inc., priority 1996, dated 2003)
Where a name gives a salt, the structure may show the parent alone. Read-outs that look alike come from different tables or passages of the source.

System: TNF production by monocytes activated with bacterial lipopolysaccharide (LPS)
Assay: Lipopolysaccharide-activated monocyte TNF production assay
Format: cell-based, human
Conditions: TNF in supernatant by ELISA, read-out: IC50 values in the monocyte assay (LPS induced TNF release)
Protocol: Lipopolysaccharide-activated Monocyte TNF Production Assay
Test compounds were evaluated in vitro for the ability to inhibit the production of TNF by monocytes activated with bacterial lipopolysaccharide (LPS). Fresh residual source leukocytes (a byproduct of plateletpheresis) were obtained from a local blood bank, and peripheral blood mononuclear cells (PBMCS) were isolated by density gradient centrifugation on Ficol-Paque Plus (Pharmacia). PBMCs were suspended at 2×10^6/ml in DMEM supplemented to contain 2% FCS, 10 mM, 0.3 mg/ml […], 100 U/ml penicillin G and […] streptomycin sulfate (complete media). Cells were plated into Falcon flat bottom, 96 well culture plates (200 μl/well) and cultured overnight at 37° C. and 6% CO2. Non-adherent cells were removed by washing with 200 μl/well of fresh medium. Wells containing adherent cells (˜70% monocytes) were replenished with 100 μl of fresh medium.
Preparation of Test Compound Stock Solutions
Test compounds were dissolved in […]. Compound stock solutions were prepared to an initial concentration of […]. Stocks were diluted initially to 20-200 μM in complete media. Nine two-fold serial dilutions of each compound were then prepared in complete medium.
Treatment of Cells with Test Compounds and Activation of TNF Production with Lipopolysaccharide
One hundred microliters of each test compound dilution were added to microtiter wells containing adherent monocytes and 100 μl complete medium. Monocytes were cultured with test compounds for 60 min at which time 25 μl of complete medium containing 30 ng/ml lipopolysaccharide from E. coli K532 were added to each well. Cells were cultured an additional 4 hrs. Culture supernatants were then removed and TNF presence in the supernatants was quantified using an ELISA.
Flat bottom, 96 well Corning High Binding ELISA plates were coated overnight (4° C.) with 150 μL/well of 3 μg/ml murine anti-human TNF-α MAb (R&D Systems #MAB210). Wells were then blocked for 1 hr at room temperature with 200 μL/well of CaCl2-free ELISA buffer supplemented to contain 20 mg/ml BSA (standard ELISA buffer: […], 150 mM NaCl, 2 mM CaCl2, 0.15 mM thimerosal, pH 7.4). Plates were washed and replenished with 100 μl of test supernatants (diluted 1:3) or standards. Standards consisted of eleven 1.5-fold serial dilutions from a stock of 1 ng/ml recombinant human TNF (R&D Systems). Plates were incubated at room temperature for 1 hr on orbital shaker (300 rpm), washed and replenished with 100 μl/well of 0.5 μg/ml goat anti-human TNF-α (R&D systems #AB-210-NA) biotinylated at a 4:1 ratio. Plates were incubated for 40 min, washed and replenished with 100 μl/well of alkaline phosphatase-conjugated streptavidin (Jackson ImmunoResearch #016-050-084) at 0.02 μg/ml. Plates were incubated 30 min, washed and replenished with 200 μl/well of 1 mg/ml of p-nitrophenyl phosphate. After 30 min, plates were read at 405 nm on a Vmax plate reader.
Standard curve data were fit to a second order polynomial and unknown TNF-α concentrations determined from their OD by solving this equation for concentration. TNF concentrations were then plotted vs. test compound concentration using a second order polynomial. This equation was then used to calculate the concentration of test compounds causing a 50% reduction in TNF production.

Compound: Fc1ccc(-c2cnc(NCCc3ccccc3F)nc2-c2ccncc2)cc1 [Example 2-13, 5-(4-Fluorophenyl)-2-(2-(2-fluorophenyl)-ethylamino)-4-(4-pyridyl)-pyrimidine]
- IC50: ≤ 5 µM

Compound: Fc1ccc(-c2cnc(NCCN3CCOCC3)nc2-c2ccncc2)cc1 [Example 2-30, 5-(4-Fluorophenyl)-2-(2-morpholinoethylamino)-4-(4-pyridyl)-pyrimidine]
- IC50 (Homo sapiens, Monocyte): ≤ 20 µM

Compound: Fc1ccc(Nc2ncc(-c3ccc(F)cc3)c(-c3ccncc3)n2)cc1 [Example 1-27, 5-(4-Fluorophenyl)-2-(4-fluorophenylamino)-4-(4-pyridyl)-pyrimidine]
- IC50 (Homo sapiens, Monocyte): ≤ 20 µM

Compound: Fc1ccc(-c2cnc(CSc3ccccc3)nc2-c2ccncc2)cc1 [Example 1-10, 5-(4-Fluorophenyl)-2-phenylthiomethyl-4-(4-pyridinyl)-pyrimidine]
- IC50 (Homo sapiens, Monocyte): ≤ 20 µM

Compound: Fc1ccc(-c2cnc(NCCN3CCCC3)nc2-c2ccncc2)cc1 [Example 2-32, 5-(4-Fluorophenyl)-4-(4-pyridyl)-2-(2-pyrrolidinoethylamino)-pyrimidine]
- IC50 (Homo sapiens, Monocyte): ≤ 20 µM

Compound: Fc1ccc(-c2cnc(Nc3c(Cl)cccc3Cl)nc2-c2ccncc2)cc1 [Example 1-24, 2-(2,6-Dichlorophenylamino)-5-(4-fluorophenyl)-4-(4-pyridyl)-pyrimidine]
- IC50 (Homo sapiens, Monocyte): ≤ 20 µM

Compound: O=c1[nH]c(Cc2c(Cl)cccc2Cl)nc(-c2ccncc2)c1-c1ccc(F)cc1 [Example 4-3, 2-(2,6-Dichlorobenzyl)-5-(4-fluorophenyl)-6-(4-pyridyl)-4(3H)-pyrimidinone]
- IC50 (Homo sapiens, Monocyte): ≤ 20 µM

Compound: Fc1ccc(-c2cnc(NCCN3CCCCC3)nc2-c2ccncc2)cc1 [Example 2-31, 5-(4-Fluorophenyl)-2-(2-piperidinoethylamino)-4-(4-pyridyl)-pyrimidine]
- IC50 (Homo sapiens, Monocyte): ≤ 20 µM

Compound: Fc1ccc(-c2cnc(NCCc3ccc(Br)cc3)nc2-c2ccncc2)cc1 [Example 2-10, 2-(2-(4-Bromophenyl)-ethylamino)-5-(4-fluorophenyl)-4-(4-pyridyl)-pyrimidine]
- IC50 (Homo sapiens, Monocyte): ≤ 20 µM

Compound: CN(CCc1ccccc1)c1ncc(-c2ccc(F)cc2)c(-c2ccncc2)n1 [Example 2-21, 5-(4-Fluorophenyl)-2-(methyl-(2-phenylethyl)-amino)-4-(4-pyridyl)-pyrimidine]
- IC50 (listed as 5-(4-Fluorophenyl)-2-(N-methyl-N-(2-phenylethyl)amino)-4-(4-pyridyl)-pyrimidine): ≤ 5 µM

Compound: O=c1[nH]c(SCCNc2ccccc2)nc(-c2ccncc2)c1-c1ccc(F)cc1 [Example 5-4, 5-(4-Fluorophenyl)-2-(2-phenylaminoethyl)thio-6-(4-pyridyl)-4(3H)-pyrimidinone]
- IC50 (Homo sapiens, Monocyte): ≤ 20 µM

Compound: OC(CNc1ncc(-c2ccc(F)cc2)c(-c2ccncc2)n1)c1ccccc1 (centres unmarked) [Example 2-20, 5-(4-Fluorophenyl)-2-((2-hydroxy-2-phenyl)-ethylamino)-4-(4-pyridyl)-pyrimidine]
- IC50: ≤ 5 µM

Compound: Fc1ccc(-c2cnc(-c3cccs3)nc2-c2ccncc2)cc1 [Example 1-18, 5-(4-Fluorophenyl)-4-(4-pyridyl)-2-(2-thienyl)-pyrimidine]
- IC50 (Homo sapiens, Monocyte): ≤ 20 µM

Compound: Fc1ccc(-c2cnc(N3CCOCC3)nc2-c2ccncc2)cc1 [Example 1-33, 5-(4-Fluorophenyl)-2-morpholino-4-(4-pyridyl)-pyrimidine]
- IC50 (Homo sapiens, Monocyte): ≤ 20 µM

Compound: COc1cccc(CCNc2ncc(-c3ccc(F)cc3)c(-c3ccncc3)n2)c1 [Example 2-18, 5-(4-Fluorophenyl)-2-(2-(3-methoxyphenyl)-ethylamino)-4-(4-pyridyl)-pyrimidine]
- IC50 (Homo sapiens, Monocyte): ≤ 20 µM

Compound: O=c1[nH]c(SCCOc2ccccc2)nc(-c2ccncc2)c1-c1ccc(F)cc1 [Example 5-3, 5-(4-Fluorophenyl)-2-(2-phenoxyethyl)thio-6-(4-pyridyl)-4(3H)-pyrimidinone]
- IC50 (Homo sapiens, Monocyte): ≤ 20 µM

Compound: Fc1ccc(-c2cnc(-c3ccncc3)nc2-c2ccncc2)cc1 [Example 11, 5-(4-Fluorophenyl)-2,4-bis-(4-pyridyl)-pyrimidine]
- IC50 (Homo sapiens, Monocyte): ≤ 20 µM

Compound: Cc1cccc(C)c1Nc1ncc(-c2ccc(F)cc2)c(-c2ccncc2)n1 [Example 1-25, 2-(2,6-Dimethylphenylamino)-5-(4-fluorophenyl)-4-(4-pyridyl)-pyrimidine]
- IC50 (Homo sapiens, Monocyte): ≤ 20 µM

Compound: CCN(CC)CCNc1ncc(-c2ccc(F)cc2)c(-c2ccncc2)n1 [Example 1-22, 2-(2-Diethylaminoethylamino)-5-(4-fluorophenyl)-4-(4-pyridyl)-pyrimidine]
- IC50 (Homo sapiens, Monocyte): ≤ 20 µM

Compound: 5-(4-Fluorophenyl)-2-((3-imidazolylpropyl)-amino)-4-(4-pyridyl)-pyrimidine [Example 2-24]
- IC50: ≤ 5 µM

Compound: CC(CCc1ccccc1)Nc1nc(-c2ccncc2)c(-c2ccc(F)cc2)c(=O)[nH]1 (centres unmarked) [Example 6-3, 5-(4-Fluorophenyl)-2-((1-methyl-3-phenylpropyl)-amino)-6-(4-pyridyl)-4(3H)-pyrimidinone]
- IC50: ≤ 5 µM

Compound: O=c1[nH]c(NCCCc2ccccc2)nc(-c2ccncc2)c1-c1ccc(F)cc1 [Example 6-2, 5-(4-Fluorophenyl)-2-((3-phenylpropyl)-amino)-6-(4-pyridyl)-4(3H)-pyrimidinone]
- IC50: ≤ 5 µM

Compound: CC(CCc1ccccc1)Nc1ncc(-c2ccc(F)cc2)c(-c2ccncc2)n1 (centres unmarked) [Example 2-23, 5-(4-Fluorophenyl)-2-((1-methyl-3-phenylpropyl)-amino)-4-(4-pyridyl)-pyrimidine]
- IC50 (Homo sapiens, Monocyte): ≤ 20 µM

Compound: Fc1ccc(-c2cnc(NCCCCc3ccccc3)nc2-c2ccncc2)cc1 [Example 2-25, 5-(4-Fluorophenyl)-2-((4-phenyl-n-butyl)-amino)-4-(4-pyridyl)-pyrimidine]
- IC50 (Homo sapiens, Monocyte): ≤ 20 µM

Compound: Nc1ccc(CCNc2ncc(-c3ccc(F)cc3)c(-c3ccncc3)n2)cc1 [Example 2-12, 2-(2-(4-Aminophenyl)-ethylamino)-5-(4-fluorophenyl)-4-(4-pyridyl)-pyrimidine]
- IC50 (Homo sapiens, Monocyte): ≤ 20 µM

Compound: NCCCCNc1ncc(-c2ccc(F)cc2)c(-c2ccncc2)n1 [Example 2-3, 2-(4-Aminobutylamino)-5-(4-fluorophenyl)-4-(4-pyridyl)-pyrimidine hydrochloride]
- IC50 (Homo sapiens, Monocyte): ≤ 20 µM

Compound: Fc1ccc(-c2cnc(NCCCc3ccccc3)nc2-c2ccncc2)cc1 [Example 2-22, 5-(4-Fluorophenyl)-2-((3-phenylpropyl)-amino)-4-(4-pyridyl)-pyrimidine]
- IC50: ≤ 5 µM

Compound: O=C1CCCN1CCCNc1ncc(-c2ccc(F)cc2)c(-c2ccncc2)n1 [Example 2-34, 5-(4-Fluorophenyl)-2-(3-(2-pyrrolidinon-1-yl)-propylamino)-4-(4-pyridyl)-pyrimidine]
- IC50 (Homo sapiens, Monocyte): ≤ 20 µM

Compound: Oc1ccc(CCNc2ncc(-c3ccc(F)cc3)c(-c3ccncc3)n2)cc1 [Example 2-11, 5-(4-Fluorophenyl)-2-(2-(4-hydroxyphenyl)-ethylamino)-4-(4-pyridyl)-pyrimidine]
- IC50: ≤ 5 µM

Compound: COc1ccccc1CCNc1ncc(-c2ccc(F)cc2)c(-c2ccncc2)n1 [Example 2-15, 5-(4-Fluorophenyl)-2-(2-(2-methoxyphenyl)-ethylamino)-4-(4-pyridyl)-pyrimidine]
- IC50 (Homo sapiens, Monocyte): ≤ 20 µM

Compound: Fc1ccc(CCNc2ncc(-c3ccc(F)cc3)c(-c3ccncc3)n2)cc1 [Example 2-8, 5-(4-Fluorophenyl)-2-(2-(4-fluorophenyl)-ethylamino)-4-(4-pyridyl)-pyrimidine]
- IC50: ≤ 5 µM

Compound: Fc1ccc(-c2cnc(Cc3c(Cl)cccc3Cl)nc2-c2ccncc2)cc1 [Example 1-8, 2-(2,6-Dichlorobenzyl)-5-(4-fluorophenyl)-4-(4-pyridyl)-pyrimidine]
- IC50 (Homo sapiens, Monocyte): ≤ 20 µM
